Experimental data as given in US11726079B2, “Lighting systems and methods of using lighting systems for in vitro potency assay for Photofrin” (Concordia Laboratories, Inc., priority 2012, dated 2023).
Where “and” joins values, the source holds several entries; their conditions need not be identical. Equal entries are not always repeated. Marks after values point to notes of the source that are not given here.

Tested on: A549 human lung carcinoma cells
Test: In vitro potency assay for Photofrin®: A549 cells, 4 h drug absorption, wash, 10 min irradiation at 400-650 nm, 24 h, XTT viability, 4PL EC50
Type: cell-based
Parameters: key to EC50-XTT / EC50 STD / EC50 Test: EC50 as Photofrin concentration in μg/mL (4PL inflection point)
Conditions: for EC50 STD / EC50 Test: in µg/mL; for EC50 Test / EC50 Test, Mean: Test (35 μg/mL high test drug concentration)
Method: Cell passaging of A549 cells is performed using fixed seeding densities to reduce assay variation resulting from cell culture conditions. […] Working in very low light conditions, Photofrin® is reconstituted in normal saline to 2.5 mg/mL and diluted further in culture medium at twice the desired final assay concentration, typically 140 μg/mL. A series of two-fold dilutions were then prepared from the 140 μg/mL solution and the diluted drug was added to the cells at 1:1 (v/v) according to the diagram shown in FIG. 11.
[…] The plate is then removed from the incubator, the drug is aspirated, the wells are washed with Dulbecco's phosphate buffered saline (DPBS) and fresh, pre-warmed medium is added to the wells. […] […] The wells covered with foil strips are important controls for the activity of Photofrin® in the absence of irradiation and the effect of light on the cells in the absence of drug.
The optical absorbance of the wells in column 1 (high drug concentration, no cells) is evaluated for absorption at 450 nm to ensure that the drug is not interfering with the XTT assay. The percent viability of each of the wells in columns 2-9 and 11 is calculated relative to the mean value of column 10 (cell control, no drug, no light). For each dose response obtained, a four parameter logistic (4PL) nonlinear regression analysis is performed of the percent viability versus the log-Photofrin® concentration. The point of inflection of the regression curve (C value) is defined as the EC50 and used in the calculation of relative potency. Curve fitting and calculation of the EC50 is performed with Softmax v5.4.2 (Molecular Devices, Inc.) or Prism v.5.04 (GraphPad, Software Inc.) software. The mean percent viability of columns 9 and 11 is also calculated.
• 1. Materials and Reagents • 1.1. A549 Human Lung Carcinoma (ATCC—Cat. No.: CCL-185) • 1.2. 25 cm^2 Flasks (Corning—Cat. No.: 431463, or equivalent) • 1.3. 75 cm^2 Flasks (Corning—Cat. No.: 431464, or equivalent) • 1.4. 50 mL tubes (Fisher Scientific—Cat. No. 17-512F, or equivalent) • 1.5. Hemacytometer • 1.6. RPMI-1640 (+) phenol red (Lonza—Cat. No.: 12-167F, or equivalent) • 1.7. HI-FBS (Gibco—Life Technologies—Cat No.: 10082-147, or equivalent) • 1.8. 200 mM L-Glutamine (Lonza—Cat. No.: 17-605E, or equivalent) • 1.9. 0.25% Trypsin-EDTA (Gibco—Cat. No.: 25200-056, or equivalent) • 2. Instruments • 2.1. Forma Scientific centrifuge with swinging bucket rotor (Model 5682, or equivalent) • 2.2. Water bath set at 37° C. • 2.3. […] Prepared Reagents • 3.1. RPMI-1640 Complete Media • 3.1.1. 500 mL bottle of RPMI-1640 basal media containing phenol red • 3.1.2. Add 50 mL HI-FBS • 3.1.3. Add 5.5 mL of 200 mM L-Glutamine • 4. Procedure • 4.1. Remove one vial of A549 lung carcinoma cells from liquid nitrogen storage and after ensuring that the vial is tightly closed, rapidly thaw vial by holding all but the top of the vial submerged in a 37° C. water bath until the vial contents begins to thaw but while ice still remains. • 4.2. Liberally spray the vial with 70% ethanol, wipe with tissue, and place into a laminar flow hood. • 4.3. Transfer the contents of the vial to a 50 mL conical tube containing 9 mL RPMI-1640 complete medium containing phenol red (Step 3.1) (hereafter referred to as complete medium in this method). • 4.4. Centrifuge the tube in a swing bucket rotor set at 1200 RPM (220 RCF) for five minutes at room temperature. • 4.5. Discard supernatant and gently flick the tube to resuspend the cells in the residual volume left in the tube. • 4.6. Add 5 mL complete medium, transfer the cell solution to a 25 cm^2 flask, and then place the flask into a 37° C. incubator with 5% CO2. • 4.7. Monitor the flask daily and when the cells reach approximately 80% confluence, remove the media, and wash the cells by adding 2 mL DPBS to the flask. Ensure that all cells are rinsed and discard the DPBS. • 4.8. Add 1 mL 0.25% trypsin-EDTA to prewash the cells, tip flask to coat all cells, and discard the trypsin. • 4.9. […]

porfimer sodium [Photofrin®]
ratio of the standard to test sample EC50 (FIG. 12, standard preparation versus preparation containing half of the nominal activity): 0.5
EC50 STD (Standard sample (70 μg/mL high test drug concentration), A549 cells at passage P10): 10.5
EC50 STD (Standard sample (70 μg/mL high test drug concentration), A549 cells at passage P17): 10.1
EC50 STD (Standard sample (70 μg/mL high test drug concentration), Inter-operator Assay, AB-1): 6.37
EC50 STD (Standard sample (70 μg/mL high test drug concentration), Inter-operator Assay, AB-2): 8.23
EC50 STD, Mean (Standard sample (70 μg/mL high test drug concentration), Inter-operator Assay, mean of operator AB plates): 7.3 µg/mL
EC50 STD (Standard sample (70 μg/mL high test drug concentration), Photofrin® absorption time 3.5 hours): 10.4
EC50 STD (Standard sample (70 μg/mL high test drug concentration), absorption time 4.0 hours): 10.2
EC50 STD (Standard sample (70 μg/mL high test drug concentration), absorption time 4.5 hours): 9.23
EC50 STD (Standard sample (70 μg/mL high test drug concentration), irradiation time 8 minutes): 12.0
EC50 STD (Standard sample (70 μg/mL high test drug concentration), irradiation time 9 minutes): 12.0
EC50 STD (Standard sample (70 μg/mL high test drug concentration), irradiation time 10 minutes): 11.1
EC50 STD (Standard sample (70 μg/mL high test drug concentration), irradiation time 11 minutes): 11.6
EC50 STD (Standard sample (70 μg/mL high test drug concentration), irradiation time 12 minutes): 10.8
EC50 STD (Standard sample (70 μg/mL high test drug concentration), operator AB Pilot Assay-1): 6.62
EC50 STD (Standard sample (70 μg/mL high test drug concentration), operator AB Pilot Assay-2): 6.76
EC50 STD (Standard sample (70 μg/mL high test drug concentration), post-irradiation incubation time 22 hours): 9.16
EC50 STD (Standard sample (70 μg/mL high test drug concentration), post-irradiation incubation time 24 hours): 10.2
EC50 STD (Standard sample (70 μg/mL high test drug concentration), post-irradiation incubation time 26 hours): 9.55
EC50 STD (Standard sample (70 μg/mL high test drug concentration), post-irradiation temperature 35° C.): 9.68
EC50 STD (Standard sample (70 μg/mL high test drug concentration), post-irradiation temperature 37° C. (nominal, two experiments)): 10.8 and 9.9
EC50 STD (Standard sample (70 μg/mL high test drug concentration), post-irradiation temperature 39° C.): 8.32
Standard Sample EC50 (Standard sample, 70 μg/mL high test concentration, Plate 1 (placement Standard, Test; left to right dilution; controls in columns 9-11)): 11.1 µg/mL
Standard Sample EC50 (Standard sample, 70 μg/mL high test concentration, Plate 2 (placement Test, Standard; left to right dilution; controls in columns 9-11)): 10.7 µg/mL
Standard Sample EC50 (Standard sample, 70 μg/mL high test concentration, Plate 3 (right to left dilution; controls in columns 9-11)): 11.2 µg/mL
Standard Sample EC50 (Standard sample, 70 μg/mL high test concentration, Plate 4 (placement Standard, Test; left to right dilution; controls in columns 9-11)): 11 µg/mL
Standard Sample EC50 (Standard sample, 70 μg/mL high test concentration, Plate 5 (left to right dilution; controls in columns 2-4)): 10.8 µg/mL
Standard Sample EC50, Mean (Standard sample, 70 μg/mL high test concentration, mean across Plates 1-5 of positional analysis): 11 µg/mL
EC50 Test (A549 cells at passage P10, wide confidence interval due to poor curve fitting): 18.9**
EC50 Test (A549 cells at passage P17): 19.2
EC50 Test (Inter-operator Assay, AB-1): 13.7
EC50 Test (Inter-operator Assay, AB-2): 14.6
EC50 Test, Mean (Inter-operator Assay, mean of operator AB plates): 14.2 µg/mL
EC50 Test, Mean (Inter-operator Assay, mean of operator KP plates): 20 µg/mL
EC50 Test (Inter-operator Assay, operator KP, both plates KP-1): 20.1 and 19.8
EC50 Test (absorption time 3.5 hours): 19.5
EC50 Test (absorption time 4.0 hours): 20.1
EC50 Test (absorption time 4.5 hours): 16.1
EC50 Test (irradiation time 8 minutes): 24.5
EC50 Test (irradiation time 9 minutes): 25.2
EC50 Test (irradiation time 10 minutes): 22.8
EC50 Test (irradiation time 11 minutes): 20.9
EC50 Test (irradiation time 12 minutes): 21.0
EC50 Test (operator AB Pilot Assay-1): 16.1
EC50 Test (operator AB Pilot Assay-2): 12.6
EC50 Test (post-irradiation incubation time 22 hours): 16.7
EC50 Test (post-irradiation incubation time 24 hours): 18.9
EC50 Test (post-irradiation incubation time 26 hours): 16.6
EC50 Test (post-irradiation temperature 35° C.): 21.6
EC50 Test (post-irradiation temperature 37° C. (nominal, two experiments)): 19.9 and 20.0
EC50 Test (post-irradiation temperature 39° C.): 16.1
EC50 Test (seeding density 0.8 × 10^4 cells/well): 21.1
EC50 Test (seeding density 1.2 × 10^4 cells/well): 27.9
EC50 Test (seeding density 1.9 × 10^4 cells/well): 21.3
